Results published in patent US20250230193A1, “CYCLIC COMPOUND HAVING SELECTIVE KRAS INHIBITORY EFFECT ON HRAS AND NRAS” (CHUGAI SEIYAKU KABUSHIKI KAISHA, priority 2022, published 2025).

Legend:
[1] = molecular target: GDP-bound NRAS wild-type protein (Homo sapiens, UniProt P01111); assay: Binding to NRAS by surface plasmon resonance (SPR), Single Cycle Kinetics; conditions: KD ratio NRAS/KRAS, SPR
[2] = molecular target: GDP-bound HRAS wild-type protein (Homo sapiens, UniProt P01112); assay: Binding to HRAS by surface plasmon resonance (SPR), Single Cycle Kinetics; conditions: KD ratio HRAS/KRAS, SPR
Sequence of GDP-bound HRAS wild-type protein (P01112 whole entry): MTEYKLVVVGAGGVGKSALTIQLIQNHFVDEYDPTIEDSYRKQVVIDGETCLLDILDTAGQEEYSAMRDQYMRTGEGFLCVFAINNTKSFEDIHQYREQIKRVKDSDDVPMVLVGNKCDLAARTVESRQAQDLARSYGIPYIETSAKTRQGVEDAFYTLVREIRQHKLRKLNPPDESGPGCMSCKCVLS

Sequence of GDP-bound NRAS wild-type protein (P01111 whole entry): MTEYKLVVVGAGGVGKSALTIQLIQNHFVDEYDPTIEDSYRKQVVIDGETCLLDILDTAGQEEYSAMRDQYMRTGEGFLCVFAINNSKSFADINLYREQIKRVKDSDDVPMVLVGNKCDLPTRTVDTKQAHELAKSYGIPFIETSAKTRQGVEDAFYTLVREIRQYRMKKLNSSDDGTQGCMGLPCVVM

| Compound | NRAS/KRAS (ratio of KD value with respect to GDP-bound NRAS wild-type protein to KD value with respect to KRAS) [1] | HRAS/KRAS (ratio of KD value with respect to GDP-bound HRAS wild-type protein to KD value with respect to KRAS) [2] |
| --- | --- | --- |
| CC[C@H](C)[C@@H]1NC(=O)[C@H](CC(C)C)N(C)C(=O)C[C@@H](C(=O)N2CCOCC2)N(C)C(=O)[C@H](C2CCCC2)N(C)C(=O)C2(CCCC2)NC(=O)[C@@H]2CCCN2C(=O)[C@H](CCc2ccc(C(F)(F)F)c(Cl)c2)NC(=O)CN(C)C(=O)[C@H](Cc2ccc(OC)cc2)N2C/C=C\CC[C@@H](C2=O)N(C)C(=O)CN(C)C1=O [PP0609] | B (a compound having 3 or more and less than 10 is denoted as B) | B (a compound having 3 or more and less than 10 is denoted as B) |
| CC[C@H](C)[C@@H]1NC(=O)[C@H](CC(C)C)N(C)C(=O)C[C@@H](C(=O)N2CCOCC2)N(C)C(=O)[C@H](C2CCCC2)N(C)C(=O)C2(CCCC2)NC(=O)[C@@H]2CCCN2C(=O)[C@H](CCc2ccc(C(F)(F)F)c(Cl)c2)NC(=O)CN(C)C(=O)[C@H](Cc2ccc(OC(F)(F)F)cc2)N2C/C=C\CC[C@@H](C2=O)N(C)C(=O)CN(C)C1=O [PP0610] | B (a compound having 3 or more and less than 10 is denoted as B) | B (a compound having 3 or more and less than 10 is denoted as B) |
| CC[C@H](C)[C@@H]1NC(=O)[C@H](CC(C)C)N(C)C(=O)C[C@@H](C(=O)N2CCOCC2)N(C)C(=O)[C@H](C2CCCC2)N(C)C(=O)C2(CCCC2)NC(=O)[C@@H]2CCCN2C(=O)[C@H](CCc2ccc(C(F)(F)F)c(Cl)c2)NC(=O)CN(C)C(=O)[C@H](Cc2ccccc2)N2CCCCC[C@@H](C2=O)N(C)C(=O)CN(C)C1=O [PP0611] | B (a compound having 3 or more and less than 10 is denoted as B) | B (a compound having 3 or more and less than 10 is denoted as B) |
| CC[C@H](C)[C@@H]1NC(=O)[C@H](CC(C)C)N(C)C(=O)C[C@@H](C(=O)N2CCOCC2)N(C)C(=O)[C@H](C2CCCC2)N(C)C(=O)C2(CCCC2)NC(=O)[C@@H]2CCCN2C(=O)[C@H](CCc2ccc(C(F)(F)F)c(Cl)c2)NC(=O)CN(C)C(=O)[C@H](Cc2ccc(F)cc2)N2CCCCC[C@@H](C2=O)N(C)C(=O)CN(C)C1=O [PP0612] | B (a compound having 3 or more and less than 10 is denoted as B) | B (a compound having 3 or more and less than 10 is denoted as B) |
| CC[C@H](C)[C@@H]1NC(=O)[C@H](CC(C)C)N(C)C(=O)C[C@@H](C(=O)N2CCOCC2)N(C)C(=O)[C@H](C2CCCC2)N(C)C(=O)C2(CCCC2)NC(=O)[C@@H]2CCCN2C(=O)[C@H](CCc2ccc(C(F)(F)F)c(Cl)c2)NC(=O)CN(C)C(=O)[C@H](Cc2ccc(Cl)cc2)N2CCCCC[C@@H](C2=O)N(C)C(=O)CN(C)C1=O [PP0613] | B (a compound having 3 or more and less than 10 is denoted as B) | B (a compound having 3 or more and less than 10 is denoted as B) |
| CC[C@H](C)[C@@H]1NC(=O)[C@H](CC(C)C)N(C)C(=O)C[C@@H](C(=O)N2CCOCC2)N(C)C(=O)[C@H](C2CCCC2)N(C)C(=O)C2(CCCC2)NC(=O)[C@@H]2CCCN2C(=O)[C@H](CCc2ccc(C(F)(F)F)c(Cl)c2)NC(=O)CN(C)C(=O)[C@H](Cc2ccc(OC)cc2)N2CCCCC[C@@H](C2=O)N(C)C(=O)CN(C)C1=O [PP0614] | B (a compound having 3 or more and less than 10 is denoted as B) | B (a compound having 3 or more and less than 10 is denoted as B) |
| CC[C@H](C)[C@@H]1NC(=O)[C@H](CC(C)C)N(C)C(=O)C[C@@H](C(=O)N2CCOCC2)N(C)C(=O)[C@H](C2CCCC2)N(C)C(=O)C2(CCCC2)NC(=O)[C@@H]2CCCN2C(=O)[C@H](CCc2ccc(C(F)(F)F)c(Cl)c2)NC(=O)CN(C)C(=O)[C@H](Cc2ccc(OC(F)(F)F)cc2)N2CCCCC[C@@H](C2=O)N(C)C(=O)CN(C)C1=O [PP0615] | B (a compound having 3 or more and less than 10 is denoted as B) | B (a compound having 3 or more and less than 10 is denoted as B) |
| CC[C@H](C)[C@@H]1NC(=O)[C@H](CC(C)C)N(C)C(=O)C[C@@H](C(=O)N(C)C)N(C)C(=O)[C@H](C2CCCC2)N(C)C(=O)C2(CCCC2)NC(=O)[C@@H]2CCCN2C(=O)[C@H](CCc2ccc(C(F)(F)F)c(Cl)c2)NC(=O)CN(C)C(=O)[C@H](Cc2ccc(C)cc2)N2CC=C(C)C[C@@H](C2=O)N(C)C(=O)CN(C)C1=O [PP0620] | C (A compound having a KD ratio of 0.1 or more and less than 3 is denoted as C) | C (A compound having a KD ratio of 0.1 or more and less than 3 is denoted as C) |
| CC[C@H](C)[C@@H]1NC(=O)[C@H](CC(C)C)N(C)C(=O)C[C@@H](C(=O)N(C)C)N(C)C(=O)[C@H](C2CCCC2)N(C)C(=O)C2(CCCC2)NC(=O)[C@@H]2CCCN2C(=O)[C@H](CCc2ccc(C(F)(F)F)c(Cl)c2)NC(=O)CN(C)C(=O)[C@H](Cc2ccc(C(F)(F)F)cc2)N2CC=CCOC[C@H](C2=O)N(C)C(=O)CN(C)C1=O [PP0628] | C (A compound having a KD ratio of 0.1 or more and less than 3 is denoted as C) | C (A compound having a KD ratio of 0.1 or more and less than 3 is denoted as C) |
| CC[C@H](C)[C@@H]1NC(=O)[C@H](CC(C)C)N(C)C(=O)C[C@@H](C(=O)N(C)C)N(C)C(=O)[C@H](C2CCCC2)N(C)C(=O)C2(CCCC2)NC(=O)[C@@H]2CCCN2C(=O)[C@H](CCc2ccc(C(F)(F)F)c(Cl)c2)NC(=O)CN(C)C(=O)[C@H](Cc2ccc(C)cc2)N2CC=CCOC[C@H](C2=O)N(C)C(=O)CN(C)C1=O [PP0629] | B (a compound having 3 or more and less than 10 is denoted as B) | C (A compound having a KD ratio of 0.1 or more and less than 3 is denoted as C) |
| CCO[C@@H]1C[C@H]2C(=O)NC3(CCC3)C(=O)N(C)[C@@H](C3CCCC3)C(=O)N(CC)[C@H](C(=O)N(C)C)CC(=O)N(C)[C@@H](CC)C(=O)N[C@@H]([C@@H](C)CC)C(=O)N(C)CC(=O)N(C)[C@H]3CCCCCN(C3=O)[C@@H](Cc3ccc(C(F)(F)F)cc3)C(=O)N(C)CC(=O)N[C@@H](CCc3cc(F)c(C(F)(F)F)c(F)c3)C(=O)N2C1 [PP0633] | B (a compound having 3 or more and less than 10 is denoted as B) | B (a compound having 3 or more and less than 10 is denoted as B) |
| CCO[C@@H]1C[C@H]2C(=O)NC3(CCC3)C(=O)N(C)[C@@H](C3CCCC3)C(=O)N(CCC3CCC3)[C@H](C(=O)N(C)C)CC(=O)N(C)[C@@H](CC)C(=O)N[C@@H]([C@@H](C)CC)C(=O)N(C)CC(=O)N(C)[C@H]3CCCCCN(C3=O)[C@@H](Cc3ccc(C(F)(F)F)cc3)C(=O)N(C)CC(=O)N[C@@H](CCc3cc(F)c(C(F)(F)F)c(F)c3)C(=O)N2C1 [PP0635] | B (a compound having 3 or more and less than 10 is denoted as B) | B (a compound having 3 or more and less than 10 is denoted as B) |
| CCO[C@@H]1C[C@H]2C(=O)NC3(CCC3)C(=O)N(C)[C@@H](C3CCCC3)C(=O)N(CCC3CCCC3)[C@H](C(=O)N(C)C)CC(=O)N(C)[C@@H](CC)C(=O)N[C@@H]([C@@H](C)CC)C(=O)N(C)CC(=O)N(C)[C@H]3CCCCCN(C3=O)[C@@H](Cc3ccc(C(F)(F)F)cc3)C(=O)N(C)CC(=O)N[C@@H](CCc3cc(F)c(C(F)(F)F)c(F)c3)C(=O)N2C1 [PP0636] | A (a compound having 10 or more and less than 20 is denoted as A) | A (a compound having 10 or more and less than 20 is denoted as A) |
| CCO[C@@H]1C[C@H]2C(=O)NC3(CCC3)C(=O)N(C)[C@@H](C3CCCC3)C(=O)N(CCc3ccccc3)[C@H](C(=O)N(C)C)CC(=O)N(C)[C@@H](CC)C(=O)N[C@@H]([C@@H](C)CC)C(=O)N(C)CC(=O)N(C)[C@H]3CCCCCN(C3=O)[C@@H](Cc3ccc(C(F)(F)F)cc3)C(=O)N(C)CC(=O)N[C@@H](CCc3cc(F)c(C(F)(F)F)c(F)c3)C(=O)N2C1 [PP0637] | B (a compound having 3 or more and less than 10 is denoted as B) | B (a compound having 3 or more and less than 10 is denoted as B) |
| CCO[C@@H]1C[C@H]2C(=O)NC3(CCC3)C(=O)N(C)[C@@H](C3CCCC3)C(=O)N(CC)[C@H](C(=O)N3CCOCC3)CC(=O)N(C)[C@@H](CC(C)C)C(=O)N[C@@H]([C@@H](C)CC)C(=O)N(C)CC(=O)N(C)[C@H]3CCCCCN(C3=O)[C@@H](Cc3ccc(C(F)(F)F)cc3)C(=O)N(C)CC(=O)N[C@@H](CCc3cc(F)c(C(F)(F)F)c(F)c3)C(=O)N2C1 [PP0638] | B (a compound having 3 or more and less than 10 is denoted as B) | B (a compound having 3 or more and less than 10 is denoted as B) |
| CCCN1C(=O)[C@H](C2CCCC2)N(C)C(=O)C2(CCC2)NC(=O)[C@@H]2C[C@@H](OCC)CN2C(=O)[C@H](CCc2cc(F)c(C(F)(F)F)c(F)c2)NC(=O)CN(C)C(=O)[C@H](Cc2ccc(C(F)(F)F)cc2)N2CCCCC[C@@H](C2=O)N(C)C(=O)CN(C)C(=O)[C@H]([C@@H](C)CC)NC(=O)[C@H](CC(C)C)N(C)C(=O)C[C@H]1C(=O)N1CCOCC1 [PP0639] | B (a compound having 3 or more and less than 10 is denoted as B) | B (a compound having 3 or more and less than 10 is denoted as B) |
